Assay results from the supplement of paper PMC10307832.

Experiments:
Assay in all cases: relative viability (nuclei count vs DMSO), 5 days (fraction); higher = more cells survive
[1] = compound: CC[C@H](CO)Nc1nc(NCc2ccccc2)c2ncn(C(C)C)c2n1 [Seliciclib] + CC1(C)CCC(c2ccc(Cl)cc2)=C(CN2CCN(c3ccc(C(=O)NS(=O)(=O)c4ccc(N[C@H](CCN5CCOCC5)CSc5ccccc5)c(S(=O)(=O)C(F)(F)F)c4)cc3)CC2)C1 [Navitoclax] (partner 0.5 µM)
In short: (§1)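 Each reported value is a median over duplicate plates. It expresses relative viability: treated-well nuclei count divided by vehicle-well nuclei count. Lung cancer cell lines in 1536-well plates were dosed by pin tool a day after seeding, alone with one drug or with a fixed anchor-drug dose plus five library-drug doses (not always all listed) in √10 steps, and nuclei were counted after 5 days.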

[2] = compound: CC[C@H](CO)Nc1nc(NCc2ccccc2)c2ncn(C(C)C)c2n1 [Seliciclib] + C[C@@H](Oc1cc(-c2cnn(C3CCNCC3)c2)cnc1N)c1c(Cl)ccc(F)c1Cl [Crizotinib] (partner 1 µM)
In short: as §1

[3] = compound: CC[C@H](CO)Nc1nc(NCc2ccccc2)c2ncn(C(C)C)c2n1 [Seliciclib] + Cc1nc(Nc2ncc(C(=O)Nc3c(C)cccc3Cl)s2)cc(N2CCN(CCO)CC2)n1 [Dasatinib] (partner 0.075 µM)
In short: as §1

[4] = compound: CC[C@H](CO)Nc1nc(NCc2ccccc2)c2ncn(C(C)C)c2n1 [Seliciclib] + O=C(CCCCCCC(=O)Nc1ccccc1)NO [Vorinostat] (partner 1 µM)
In short: as §1

Cell Line	relative viability ([1]; first compound 0.08 µM)	relative viability ([1]; first compound 0.253 µM)	relative viability ([1]; first compound 0.8 µM)	relative viability ([1]; first compound 2.53 µM)	relative viability ([1]; first compound 8 µM)	relative viability ([2]; first compound 0.08 µM)	relative viability ([2]; first compound 0.253 µM)	relative viability ([2]; first compound 0.8 µM)	relative viability ([2]; first compound 2.53 µM)	relative viability ([2]; first compound 8 µM)	relative viability ([3]; first compound 0.08 µM)	relative viability ([3]; first compound 0.253 µM)	relative viability ([3]; first compound 0.8 µM)	relative viability ([3]; first compound 2.53 µM)	relative viability ([3]; first compound 8 µM)	relative viability ([4]; first compound 0.08 µM)	relative viability ([4]; first compound 0.253 µM)	relative viability ([4]; first compound 0.8 µM)	relative viability ([4]; first compound 2.53 µM)	relative viability ([4]; first compound 8 µM)
NCI-H727	0.509	0.494	0.407	0.43	0.309	0.813	0.882	0.777	0.829	0.823	0.481	0.504	0.342	0.307	0.336	1.19	1.25	1.04	0.744	1.07
NCI-H650						0.65	0.713	0.84		0.543	0.447	0.387	0.596	0.262	0.39	0.403	0.36	0.638	0.3	0.341
NCI-H520	0.96	0.847	0.997	1.2	1.18	0.85	0.552	0.638	0.921	0.589	0.167		0.258	0.219	0.178	0.704	0.635	0.802	0.725	0.632
EBC-1	0.447	0.417	0.402	0.333	0.231	0.199	0.226	0.199	0.201	0.213										
NCI-H661						0.98	1.12	0.939		0.894	0.832	1.03	0.9	0.739	0.547	0.721	0.918	0.748	0.703	0.565
NCI-H1299	0.996	1.14	1.02	1.03	1	0.983	1.07	0.935	0.993	0.943										
LK-2	0.797	0.648	0.823	0.643	0.536	0.246	0.227	0.205	0.227	0.249	0.305	0.414	0.436	0.226	0.217	0.33	0.253	0.335	0.242	0.204
NCI-H1993	0.937	0.635	0.927	0.962	0.849	0.769	0.803	0.768	0.849	0.727	0.589	0.478	0.521	0.508	0.435	0.836	0.931	0.883	0.559	0.498
NCI-H838	1.11	1.03	1.2	1.26	0.917	0.806	0.766	0.841	0.936	0.673	0.341	0.198	0.26	0.218	0.303	0.649	0.683	0.666	0.595	0.342
NCI-H1437	1.01	1.11	1.07	1.15	0.885	0.861	0.916	0.951	0.97	0.834	0.465	0.438	0.323	0.233	0.335	0.811	0.901	0.69	0.633	0.374
NCI-H1793	0.432	0.335	0.326	0.511	0.313						0.33	0.323	0.414	0.37	0.482	0.707	0.718	0.59	0.716	0.439
SW 900											0.541	0.593	0.661	0.397	0.559	0.53	0.701	0.484	0.467	0.35
LCLC-103H						1.02	1.04	0.955	0.975	0.919	0.535	0.499	0.57	0.276	0.481	0.753	0.764	0.733	0.448	0.68
IA-LM	0.738	1.15	0.732	0.772	0.72	0.596	1.17	0.92	0.906	0.622						0.895	0.984	0.848	0.935	0.867
NCI-H1563						0.832	0.73	0.889	0.899	0.836	0.536	0.525	0.503	0.416	0.428					
HCC-44	1.05	0.934	0.957	1.07	1.03	0.709	0.842	0.778	0.821	0.698						1.14	1.19	1.06	1.08	1.07
NCI-H358						0.54	0.709	0.546	0.544	0.246	0.196	0.153	0.148	0.129	0.137	0.726	0.942	0.513	0.711	0.267
NCI-H2342											0.328	0.336	0.313	0.301	0.319	0.792	0.753	0.706	0.663	0.705
ABC-1						1.2	1.46	0.814	1.08	0.495	0.536	0.566	0.598	0.524	0.509	0.996	0.953	1.29		0.774
NCI-H522											1.06	0.827	1.05	0.82	0.834	0.854	0.84	1.01	0.881	0.744
NCI-H1792	0.616	0.583	0.663	0.443	0.609	0.837	1.01	0.82	0.873	0.919	0.754	0.788	0.766		0.743					
